Experimental data reported in patent US8975417B2, “Pyrazolopyrrolidine derivatives and their use in the treatment of disease” (Novartis AG, priority 2013, dated 2015).
pIC50: −log10 of the molar value.

Experiments:
Conditions in all cases: biochemical
[1] = target: His-Brd4(44-477) (Homo sapiens (Human), UniProt O60885); assay: TR-FRET in-vitro binding assay for BRD4
Experimental: (§1) TR-FRET In-Vitro Binding Assays for BRD2, BRD3, and BRD4:
(§2) All assays were performed in 384-well microtiter plates. Each assay plate contained 8-point serial dilutions for 40 test compounds, plus 16 high- and 16 low controls. Liquid handling and incubation steps were done on an Innovadyne Nanodrop Express equipped with a robotic arm (Thermo CatX, Perkin Elmer/Caliper Twister II) and an incubator (Liconic STX40, Thermo Cytomat 2C450). The assay plates were prepared by addition of 50 nl per well of compound solution in 90% DMSO HummingBird nanodispenser (Zinsser Analytic). The assay was started by stepwise addition of 4.5 μL per well of bromo domain protein (50 mM HEPES, pH 7.5, 0.005% Tween20, 0.1% BSA, 50 mM NaCl, 45 nM His-Brd2(60-472) or 45 nM His-Brd3(20-477) or 45 nM His-Brd4(44-477) all proteins produced in-house) and 4.5 μL per well of peptide solution (50 mM HEPES, pH 7.5, 0.005% Tween20, 0.1% BSA, 50 mM NaCl, 60 nM acetyl-histone H4 (AcK 5, 8, 12, 16) (Biosyntan GmbH)). Reactions were incubated at 30° C. for 35 minutes. Subsequently 4.5 μL per well detection mix (50 mM HEPES, pH 7.5, 0.005% Tween20, 0.1% BSA, 50 mM NaCl, 3 nM Eu-labeled anti-His6 antibody, 21 nM streptavidin-allophycocyanin) were added. After minutes incubation at 30° C., plates were measured in a Perkin Elmer EnVision multilabel reader.
(§3) Test compounds were dissolved in DMSO (10 mM) and transferred into 1.4 mL flat bottom or V-shaped Matrix tubes carrying a unique 2D matrix. The stock solutions were stored at […] if not used immediately. For the test procedure the vials were defrosted and identified by a scanner whereby a working sheet was generated that guided the subsequent working steps. Compound dilutions were made in 96 well plates. This format enabled the assay of maximally […] at 8 concentrations (single points) including 4 reference compounds, if desired (known BET inhibitors from the prior art, for this and other assays of the type disclosed herein). The dilution protocol included the production of “pre-dilution plates”, “master plates” and “assay plates”.
(§4) Polypropylene 96-well plates were used as pre-dilution plates. […] All dilution steps were done on a HamiltonSTAR robot.
(§5) 30 μL of individual compound dilutions including standard compound and controls of the 4 “pre-dilution plates” were transferred into a 384-well “master plate” including the following concentrations 10000, […], 1000, 300, 100, 30, 10 and 3 μM, respectively in 90% of DMSO.
(§6) Identical “assay plates” were then prepared by pipetting 50 nL each of compound dilutions of the “master plates” into 384-well “assay plates” by means of a HummingBird 384-channel dispenser. These plates were used directly for the assay which was performed in a total volume of 13.55 μL.

[2] = target: His-Brd2(60-472) (Homo sapiens (Human), UniProt P25440); assay: TR-FRET in-vitro binding assay for BRD2
Experimental: as §1, §2, §3, §4, §5, §6

[3] = target: His-Brd3(20-477) (Homo sapiens (Human), UniProt Q15059); assay: TR-FRET in-vitro binding assay for BRD3
Experimental: as §1, §2, §3, §4, §5, §6

[4] = target: His-CREBBP (1081-1197) bromodomain (Homo sapiens (Human), UniProt Q92793); assay: AlphaScreen in-vitro binding assay for CREBBP
Experimental: AlphaScreen In-Vitro Binding Assay for CREBBP
In order to assess bromodomain selectivity, we set up a binding assay using the bromodomain encoded by the CREBBP gene. […] Reactions were incubated at 30° C. for 35 minutes. Subsequently 4.5 μL per well detection mix (50 mM HEPES, pH 7.5, 0.005% Tween20, 0.02% BSA, 150 mM NaCl, 45 μg/ml Ni-chelate acceptor beads, 45 μg/mL streptavidin-donor beads) (Perkin Elmer)) were added. After 60 minutes incubation at room temperature, plates were measured in a Perkin Elmer EnVision multilabel reader. IC50 values were determined from percent inhibition values at different compound concentrations by non-linear regression analysis.
as §3, §4
These plates were used directly for the assay which was performed in a total volume of 13.55 μL.

Sequence of His-Brd3(20-477) (Q15059 20-477): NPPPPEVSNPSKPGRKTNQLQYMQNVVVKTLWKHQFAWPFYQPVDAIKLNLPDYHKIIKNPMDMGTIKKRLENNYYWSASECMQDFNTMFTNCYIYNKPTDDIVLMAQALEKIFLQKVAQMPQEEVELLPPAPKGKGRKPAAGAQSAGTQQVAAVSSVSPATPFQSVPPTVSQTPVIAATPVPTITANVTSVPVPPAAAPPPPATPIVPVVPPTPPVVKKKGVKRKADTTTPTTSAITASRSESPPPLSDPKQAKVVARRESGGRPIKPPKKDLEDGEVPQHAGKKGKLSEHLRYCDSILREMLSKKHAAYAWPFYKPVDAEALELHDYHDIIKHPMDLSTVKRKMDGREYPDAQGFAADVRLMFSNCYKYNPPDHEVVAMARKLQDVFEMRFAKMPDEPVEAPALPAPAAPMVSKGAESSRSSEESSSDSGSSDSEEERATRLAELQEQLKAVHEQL
Sequence of His-Brd2(60-472) (P25440 60-472): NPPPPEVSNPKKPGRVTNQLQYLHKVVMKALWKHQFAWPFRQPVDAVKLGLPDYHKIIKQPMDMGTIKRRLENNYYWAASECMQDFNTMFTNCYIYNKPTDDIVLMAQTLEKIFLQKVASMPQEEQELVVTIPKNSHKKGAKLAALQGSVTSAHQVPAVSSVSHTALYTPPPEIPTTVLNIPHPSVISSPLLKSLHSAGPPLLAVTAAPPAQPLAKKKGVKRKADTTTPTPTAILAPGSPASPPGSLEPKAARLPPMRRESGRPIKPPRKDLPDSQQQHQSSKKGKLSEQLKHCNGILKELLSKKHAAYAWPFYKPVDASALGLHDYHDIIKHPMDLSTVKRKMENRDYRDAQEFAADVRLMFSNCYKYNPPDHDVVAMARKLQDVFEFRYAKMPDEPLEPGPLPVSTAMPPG
Sequence of His-CREBBP (1081-1197) bromodomain (Q92793 1081-1197): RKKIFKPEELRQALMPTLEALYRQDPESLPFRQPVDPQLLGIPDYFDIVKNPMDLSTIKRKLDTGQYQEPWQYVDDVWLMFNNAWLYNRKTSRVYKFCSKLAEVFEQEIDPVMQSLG

## Cc1nn(C2CC2)c2c1C(c1ccc(Cl)cc1)N(c1cc(C)c(=O)n(C)c1)C2=O (racemic) [Example 23, 4-(4-chlorophenyl)-1-cyclopropyl-5-(1,5-dimethyl-6-oxo-1,6-dihydropyridin-3-yl)-3-methyl-4,5-dihydropyrrolo[3,4-c]pyrazol-6(1H)-one]
[1]
  pIC50: 7.18

## Cn1cc2c(n1)C(=O)N(c1cc(F)c(=O)n(C)c1)C2c1ccc(Cl)cc1 (stereo not shown) [Example 14, 4-(4-chlorophenyl)-5-(5-fluoro-1-methyl-6-oxo-1,6-dihydropyridin-3-yl)-2-methyl-4,5-dihydropyrrolo[3,4-c]pyrazol-6(2H)-one]
[1]
  pIC50: 6.34

## Cc1[nH]nc2c1C(c1ccc(Cl)cc1)N(c1ccc(=O)n(C)c1)C2=O (stereo not shown) [Example 2, 4-(4-chlorophenyl)-3-methyl-5-(1-methyl-6-oxo-1,6-dihydropyridin-3-yl)-4,5-dihydropyrrolo[3,4-c]pyrazol-6(2H)-one]
[1]
  pIC50: 6.77

## Cc1cc(N2C(=O)c3nn(C)cc3C2c2ccc(Cl)cc2)cn(C)c1=O (stereo not shown) [Example 13, 4-(4-chlorophenyl)-5-(1,5-dimethyl-6-oxo-1,6-dihydropyridin-3-yl)-2-methyl-4,5-dihydropyrrolo[3,4-c]pyrazol-6(2H)-one]
[1]
  pIC50: 6.89
[2]
  pIC50: 6.74
[3]
  pIC50: 6.82

## Cc1cc(N2C(=O)c3nn(C4CC4)c(C)c3[C@@H]2c2ccc(Cl)cc2)cn(C)c1=O [Example 22, (S)-4-(4-chlorophenyl)-2-cyclopropyl-5-(1,5-dimethyl-6-oxo-1,6-dihydropyridin-3-yl)-3-methyl-4,5-dihydropyrrolo[3,4-c]pyrazol-6(2H)-one]
[2]
  pIC50: < 5.17

## Cc1c2c(nn1C)C(=O)N(c1cc(Cl)c(=O)n(C)c1)[C@H]2c1ccc(Cl)cc1 [Example 8, (S)-5-(5-chloro-1-methyl-6-oxo-1,6-dihydropyridin-3-yl)-4-(4-chlorophenyl)-2,3-dimethyl-4,5-dihydropyrrolo[3,4-c]pyrazol-6(2H)-one]
[1]
  pIC50: 4.51
[2]
  pIC50: 4.44
[3]
  pIC50: 4.57

## Cc1cc(N2C(=O)c3nn(C)c(C)c3[C@@H]2c2ccc(Cl)cc2)cn(C)c1=O [Example 29, (S)-4-(4-chlorophenyl)-5-(1,5-dimethyl-6-oxo-1,6-dihydropyridin-3-yl)-2,3-dimethyl-4,5-dihydropyrrolo[3,4-c]pyrazol-6(2H)-one]
[1]
  pIC50: 4.51
[2]
  pIC50: 4.55
[3]
  pIC50: 4.60

## Cc1cc(N2C(=O)c3nn(C)cc3[C@@H]2c2ccc(Cl)cc2)cn(C)c1=O [Example 15, (S)-4-(4-chlorophenyl)-5-(1,5-dimethyl-6-oxo-1,6-dihydropyridin-3-yl)-2-methyl-4,5-dihydropyrrolo[3,4-c]pyrazol-6(2H)-one]
[3]
  pIC50: < 5.17

## Cn1cc(N2C(=O)c3n[nH]cc3C2c2ccc(Cl)cc2)cc(Cl)c1=O (stereo not shown) [Example 9, 5-(5-chloro-1-methyl-6-oxo-1,6-dihydropyridin-3-yl)-4-(4-chlorophenyl)-4,5-dihydropyrrolo[3,4-c]pyrazol-6(2H)-one]
[1]
  pIC50: 6.77
[2]
  pIC50: 6.68
[3]
  pIC50: 6.74

## Cc1cc(N2C(=O)c3nn(C4CC4)cc3C2c2ccc(Cl)cc2)cn(C)c1=O (stereo not shown) [Example 39, 4-(4-chlorophenyl)-2-cyclopropyl-5-(1,5-dimethyl-6-oxo-1,6-dihydropyridin-3-yl)-4,5-dihydropyrrolo[3,4-c]pyrazol-6(2H)-one]
[1]
  pIC50: 6.92
[2]
  pIC50: 7.11
[3]
  pIC50: 7.04

## Cc1c2c(nn1C)C(=O)N(c1cc(F)c(=O)n(C)c1)C2c1ccc(Cl)cc1 (stereo not shown) [Example 31, 4-(4-chlorophenyl)-5-(5-fluoro-1-methyl-6-oxo-1,6-dihydropyridin-3-yl)-2,3-dimethyl-4,5-dihydropyrrolo[3,4-c]pyrazol-6(2H)-one]
[1]
  pIC50: 6.28
[2]
  pIC50: 6.16
[3]
  pIC50: 6.33

## Cc1c2c(nn1C)C(=O)N(c1ccc3nnc(C)n3c1)C2c1ccc(Cl)cc1 (stereo not shown) [Example 25, 4-(4-chlorophenyl)-2,3-dimethyl-5-(3-methyl-[1,2,4]triazolo[4,3-a]pyridin-6-yl)-4,5-dihydropyrrolo[3,4-c]pyrazol-6(2H)-one]
[1]
  pIC50: 6.59
[2]
  pIC50: 6.57
[3]
  pIC50: 6.60

## Cn1cc2c(n1)C(=O)N(c1cc(Cl)c(=O)n(C)c1)[C@@H]2c1ccc(Cl)cc1 [Example 11, (R)-5-(5-chloro-1-methyl-6-oxo-1,6-dihydropyridin-3-yl)-4-(4-chlorophenyl)-2-methyl-4,5-dihydropyrrolo[3,4-c]pyrazol-6(2H)-one]
[1]
  pIC50: 6.89
[2]
  pIC50: 6.85
[3]
  pIC50: 7.00

## Cc1c2c(nn1C)C(=O)N(c1ccc(=O)n(C)c1)C2c1ccc(Cl)cc1 (stereo not shown) [Example 3, 4-(4-chlorophenyl)-2,3-dimethyl-5-(1-methyl-6-oxo-1,6-dihydropyridin-3-yl)-4,5-dihydropyrrolo[3,4-c]pyrazol-6(2H)-one]
[1]
  pIC50: 6.40
[2]
  pIC50: 6.24
[3]
  pIC50: 6.28

## Cn1cc2c(n1)C(=O)N(c1cc(Cl)c(=O)n(C)c1)[C@H]2c1ccc(Cl)cc1 [Example 12, (S)-5-(5-chloro-1-methyl-6-oxo-1,6-dihydropyridin-3-yl)-4-(4-chlorophenyl)-2-methyl-4,5-dihydropyrrolo[3,4-c]pyrazol-6(2H)-one]
[1]
  pIC50: < 4.43
[2]
  pIC50: < 4.43
[3]
  pIC50: < 4.43

## Cc1c2c(nn1C)C(=O)N(c1ccc(=O)n(C)n1)C2c1ccc(Cl)cc1 (stereo not shown) [Example 32, 4-(4-chlorophenyl)-2,3-dimethyl-5-(1-methyl-6-oxo-1,6-dihydropyridazin-3-yl)-4,5-dihydropyrrolo[3,4-c]pyrazol-6(2H)-one]
[1]
  pIC50: 6.18
[2]
  pIC50: 5.92
[3]
  pIC50: 6.05

## Cc1nn(C)c2c1C(c1ccc(Cl)cc1)N(c1ccc(=O)n(C)c1)C2=O (stereo not shown) [Example 4, 4-(4-chlorophenyl)-1,3-dimethyl-5-(1-methyl-6-oxo-1,6-dihydropyridin-3-yl)-4,5-dihydropyrrolo[3,4-c]pyrazol-6(1H)-one]
[1]
  pIC50: 6.64

## Cc1nn(C2CC2)c2c1[C@H](c1ccc(Cl)cc1)N(c1cc(Cl)c(=O)n(C)c1)C2=O [Example 50, (S)-5-(5-chloro-1-methyl-6-oxo-1,6-dihydropyridin-3-yl)-4-(4-chlorophenyl)-1-cyclopropyl-3-methyl-4,5-dihydropyrrolo[3,4-c]pyrazol-6(1H)-one]
[2]
  pIC50: < 5.17
[4]
  pIC50: < 5.29

## COc1ccc(Cn2nc3c(c2C)C(c2ccc(Cl)cc2)N(c2ccc(=O)n(C)c2)C3=O)cc1 (stereo not shown) [Example 1, 4-(4-chlorophenyl)-2-(4-methoxybenzyl)-3-methyl-5-(1-methyl-6-oxo-1,6-dihydropyridin-3-yl)-4,5-dihydropyrrolo[3,4-c]pyrazol-6(2H)-one]
[1]
  pIC50: 6.85

## Cn1cc2c(n1)C(=O)N(c1cc(Cl)c(=O)n(C)c1)C2c1ccc(Cl)cc1 (stereo not shown) [Example 10, 5-(5-chloro-1-methyl-6-oxo-1,6-dihydropyridin-3-yl)-4-(4-chlorophenyl)-2-methyl-4,5-dihydropyrrolo[3,4-c]pyrazol-6(2H)-one]
[1]
  pIC50: 6.82
[2]
  pIC50: 6.82
[3]
  pIC50: 6.89

## Cc1cc(N2C(=O)c3nn(C)c(C)c3[C@H]2c2ccc(Cl)cc2)cn(C)c1=O [Example 30, (R)-4-(4-chlorophenyl)-5-(1,5-dimethyl-6-oxo-1,6-dihydropyridin-3-yl)-2,3-dimethyl-4,5-dihydropyrrolo[3,4-c]pyrazol-6(2H)-one]
[1]
  pIC50: 7.51
